Here are results for 33 molecules from patent US6117840A, “CS-1 peptidomimetics, compositions and methods of using the same” (Cytel Corporation, priority 1997, dated 2000).

Square brackets hold non-standard residues; d marks the D form. Peptide text beside a SMILES is read from it. * marks the point of attachment. Phe(4-NO2) = N[C@@H](Cc1ccc([N+](=O)[O-])cc1)C(=O)O; hPhe = N[C@@H](CCc1ccccc1)C(=O)O; Cha = N[C@@H](CC1CCCCC1)C(=O)O; Phg = N[C@H](C(=O)O)c1ccccc1; PhAc = O=C(Cc1ccccc1)*; Inp = O=C(O)C1CCNCC1; Bz = O=C(c1ccccc1)*

T1 sequence (P13612 34-1032): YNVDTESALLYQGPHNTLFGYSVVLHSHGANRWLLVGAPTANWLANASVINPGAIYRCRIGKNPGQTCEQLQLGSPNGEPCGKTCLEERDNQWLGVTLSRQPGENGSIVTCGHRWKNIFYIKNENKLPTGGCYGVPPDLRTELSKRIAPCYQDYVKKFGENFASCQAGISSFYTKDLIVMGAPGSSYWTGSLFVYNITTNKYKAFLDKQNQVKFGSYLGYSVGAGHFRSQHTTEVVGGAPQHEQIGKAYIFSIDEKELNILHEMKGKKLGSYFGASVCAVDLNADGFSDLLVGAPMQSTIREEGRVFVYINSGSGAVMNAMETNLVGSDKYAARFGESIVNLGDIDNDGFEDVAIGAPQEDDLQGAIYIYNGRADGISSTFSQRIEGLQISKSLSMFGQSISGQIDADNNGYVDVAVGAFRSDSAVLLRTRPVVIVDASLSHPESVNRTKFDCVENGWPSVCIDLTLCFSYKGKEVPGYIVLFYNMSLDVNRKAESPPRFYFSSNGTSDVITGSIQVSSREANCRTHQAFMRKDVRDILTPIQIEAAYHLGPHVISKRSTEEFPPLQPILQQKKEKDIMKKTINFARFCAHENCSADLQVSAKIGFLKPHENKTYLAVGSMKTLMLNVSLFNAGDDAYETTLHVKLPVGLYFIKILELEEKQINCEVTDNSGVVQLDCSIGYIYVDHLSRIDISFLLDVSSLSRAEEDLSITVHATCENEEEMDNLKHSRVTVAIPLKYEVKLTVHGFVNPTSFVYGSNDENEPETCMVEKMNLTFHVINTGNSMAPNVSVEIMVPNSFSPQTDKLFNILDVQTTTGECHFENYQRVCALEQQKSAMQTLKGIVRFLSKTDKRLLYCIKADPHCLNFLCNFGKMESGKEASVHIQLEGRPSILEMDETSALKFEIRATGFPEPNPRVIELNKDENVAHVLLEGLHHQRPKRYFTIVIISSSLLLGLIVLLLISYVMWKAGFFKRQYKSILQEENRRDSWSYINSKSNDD
T1 sequence (P05556 21-798): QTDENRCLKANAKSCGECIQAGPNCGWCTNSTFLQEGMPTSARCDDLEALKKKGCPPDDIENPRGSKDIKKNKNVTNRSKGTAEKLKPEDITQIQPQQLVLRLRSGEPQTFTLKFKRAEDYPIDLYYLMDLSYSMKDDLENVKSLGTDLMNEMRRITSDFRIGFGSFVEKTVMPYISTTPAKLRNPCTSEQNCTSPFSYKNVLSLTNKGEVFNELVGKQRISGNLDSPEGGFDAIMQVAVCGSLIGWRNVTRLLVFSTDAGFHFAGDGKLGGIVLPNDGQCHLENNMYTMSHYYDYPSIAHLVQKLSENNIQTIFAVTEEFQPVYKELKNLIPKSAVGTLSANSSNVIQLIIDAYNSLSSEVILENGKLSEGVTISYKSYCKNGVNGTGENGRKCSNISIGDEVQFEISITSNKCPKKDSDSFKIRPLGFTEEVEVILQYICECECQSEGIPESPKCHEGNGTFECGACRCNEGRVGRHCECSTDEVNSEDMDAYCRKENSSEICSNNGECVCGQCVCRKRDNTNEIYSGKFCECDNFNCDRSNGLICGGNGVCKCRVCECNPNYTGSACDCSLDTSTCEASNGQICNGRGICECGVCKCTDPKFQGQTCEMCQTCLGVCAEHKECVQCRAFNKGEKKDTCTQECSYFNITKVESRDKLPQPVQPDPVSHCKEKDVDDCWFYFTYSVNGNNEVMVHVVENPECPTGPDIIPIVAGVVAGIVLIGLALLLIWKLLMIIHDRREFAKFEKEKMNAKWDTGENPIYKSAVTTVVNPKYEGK

The first assay addresses T1, VLA-4 (Homo sapiens, UniProt P05556+P13612).
T1 construct: host or cells: Jurkat (human T lymphoblastic line)
The assay is classed as cell-based.
Details: not given
As for the experimental part:
Binding inhibition is measured here as a concentration of peptide that inhibits one-half the binding between a standard number of Jurkat cells and a standard amount of CS-1 peptide bound to the surface of a microtiter plate well. Those concentrations are conveniently expressed as IC50 values, smaller numbers indicating a lower concentration required to inhibit 50 percent binding and therefore greater potency. Further specifics of this assay are provided hereinafter.
Jurkat cells (ATCC TIB 152), a human T lymphoblastic line, labeled with ^51 chromium were used to assay in vitro binding inhibition provided by various peptides discussed herein.
The plates were prepared as follows: The 25-mer CS1 peptide (SEQ ID NO:1) dissolved at 0.5-1 μg/ml in a buffer of 0.1M NaHCO3 at pH 9.5 tha also contained 10 μg/ml of bovine serum albumin (BSA) or a conjugate o the CS1 peptide linked to ovalbumin (CS1-OVA) dissolved at 1-2.5 μg/ml in the same buffer was used as the substrate. Each well of the microtiter plates was coated with 50 μl of substrate or buffer alone for controls The wells were permitted to dry out completely and were then rinsed twice with PBS at pH 7.4. Nonspecific binding sites of each well were then blocked using 200 μl per well of RPMI/1 percent BSA for two hours at room temperature. Both solid phaseaffixed substrates provided similar results.
Jurkat cells (3-5×10^6 cells) were placed into a 15 ml Falcon.TM roundbottom tube with a cap. The tube was centrifuged, and the extra medium was then removed.
Two hundred microliters of a ^51 Cr labeling solution were added to th centrifuged cells and maintained in contact with the cells for 90-120 minutes in a warm room. This procedure typically provides about 50,000-100,000 cpm/well with about 80-100 percent cell viability. Longer contact times provide a greater amount of labeling but lower cell viability.
The labeled cells are washed with (i) complete medium, (ii) 1 mM EDTA/PBS and then (iii) RPMI/1 percent BSA free of serum components. The cells are centrifuged after each washing. The cells are finally resuspended in serumfree RPMI/1 percent BSA at a concentration of 1×10^6 viabl cells/ml, which provides a concentration that is diluted by onehalf in th assay.
Inhibitor peptides are prepared as stock solutions at 20 mg/ml in DMSO in 1.5 ml cryogenic screwcap vials, and were stored at -70° C. Using Flow™ roundbottom or Vbottom microtiter plates, the inhibitor peptides were prepared at twice the assay concentration in RPMI/1 percent BSA at 6 μl/well.
Four initial dilutions were typically used.
The ^51 Crlabeled cells (1×10^6 cells at 60 μl/well) were then admixed with the diluted peptide solutions. The admixtures were maintained at room temperature (about 22° C.) for 30 minutes.
One hundred microliters of each inhibitor peptide/cell admixture were transferred to the substratecoated wells. This was done in triplicate for each dilution. The resulting plates were incubated for 30 minutes at 37° C. and then washed gently three times with RPMI/1 percent BSA at 200 μl/well. Binding was observed microscopically, particularly after the second wash.
The bound cells were then lysed by the addition of a 0.5 percent solution of sodium dodecylsulfate in water at 100 μl/well. The resulting solutions were then processed for counting and calculation of IC50 values following usual procedures. Appropriate positive and negative controls were used with each plate so that the results of separate assays could be normalized and compared.
On to `CC(C)C[C@H](NC(=O)Cc1ccccc1)C(=O)N[C@@H](CC(=O)O)C(=O)N[C@@H](Cc1ccccc1)C(=O)N1CCC[C@H]1C(=O)NCCN(CCN(CCN(CCNC(=O)[C@@H]1CCCN1C(=O)[C@H](Cc1ccccc1)NC(=O)[C@H](CC(=O)O)NC(=O)[C@H](CC(C)C)NC(=O)Cc1ccccc1)C(=O)[C@@H]1CCCN1C(=O)[C@H](Cc1ccccc1)NC(=O)[C@H](CC(=O)O)NC(=O)[C@H](CC(C)C)NC(=O)Cc1ccccc1)C(=O)[C@@H]1CCCN1C(=O)[C@H](Cc1ccccc1)NC(=O)[C@H](CC(=O)O)NC(=O)[C@H](CC(C)C)NC(=O)Cc1ccccc1)C(=O)[C@@H]1CCCN1C(=O)[C@H](Cc1ccccc1)NC(=O)[C@H](CC(=O)O)NC(=O)[C@H](CC(C)C)NC(=O)Cc1ccccc1`, for which the “VLA-4 binding inhibition, times better than the standard 10-mer peptide of SEQ ID NO:3” value was “about 210 times”.

The same assay, now with this note: relative to standard peptide SEQ ID NO:3 (=1), normalized IC50; about one-tenth or less of SEQ ID NO:3 assigned zero.
Regarding `CC(C)C[C@H](NC(=O)Cc1ccccc1)C(=O)N[C@@H](CC(=O)O)C(=O)N[C@@H](Cc1ccccc1)C(=O)N1CCCC1CO` (stereo partly drawn), the “RELATIVE POTENCY (inhibition of VLA-4 binding CS-1)” value is listed as 184.
Regarding `CC(C)C[C@H](NC(=O)Cc1ccccc1)C(=O)N[C@@H](CC(=O)O)C(=O)N[C@@H](Cc1ccccc1)C(=O)N1CC(O)C(O)C1` (stereo partly drawn), the “RELATIVE POTENCY (inhibition of VLA-4 binding CS-1)” value was found to be 194.
On to `CC(C)C[C@H](NC(=O)Cc1ccccc1)C(=O)N[C@@H](CC(=O)O)C(=O)N[C@@H](Cc1ccccc1)C(=O)N1CCN(CCOCCO)CC1`, for which the “RELATIVE POTENCY (inhibition of VLA-4 binding CS-1)” value worked out at 505.
Still for that read-out and setting: the result for `CC(C)C[C@H](NC(=O)Cc1ccccc1)C(=O)N[C@@H](CC(=O)O)C(=O)N[C@@H](Cc1ccccc1)C(=O)N1CCN(CC(N)=O)CC1` reads 319.
On the same count and under the same terms, as for `CC(C)C[C@H](NC(=O)Cc1ccccc1)C(=O)N[C@@H](CC(=O)O)C(=O)N[C@@H](Cc1ccccc1)C(=O)N1CCN(CC(=O)O)CC1`, the figure is 2579.
In the case of `CC(C)C[C@H](NC(=O)Cc1ccccc1)C(=O)N[C@@H](CC(=O)O)C(=O)N[C@@H](Cc1ccccc1)C(=O)N1CCS(=O)(=O)CC1`, the “RELATIVE POTENCY (inhibition of VLA-4 binding CS-1)” value is reported as 1060.
Still for that read-out and setting: the result for `CC(C)C[C@H](NC(=O)Cc1ccccc1)C(=O)N[C@@H](CC(=O)O)C(=O)N[C@@H](Cc1ccccc1)C(=O)N1CCC(O)CC1` reads 603; that for `CC(C)C[C@H](NC(=O)Cc1ccccc1)C(=O)N[C@@H](CC(=O)O)C(=O)N[C@@H](Cc1ccccc1)C(=O)N1CC[N+](C)(C)CC1`, 313.
Same read-out and setting: the result for `CCCCCCCCCC(=O)OC1CCN(C(=O)[C@H](Cc2ccccc2)NC(=O)[C@H](CC(=O)O)NC(=O)[C@H](CC(C)C)NC(=O)Cc2ccccc2)CC1` reads below 1.
Take `CCCCCCCCCCCCCCCCCC(=O)OC1CCN(C(=O)[C@H](Cc2ccccc2)NC(=O)[C@H](CC(=O)O)NC(=O)[C@H](CC(C)C)NC(=O)Cc2ccccc2)CC1`: the “RELATIVE POTENCY (inhibition of VLA-4 binding CS-1)” value is recorded as below 1.
As for `CC(C)C[C@H](NC(=O)Cc1ccccc1)C(=O)N[C@@H](CC(=O)O)C(=O)N[C@@H](Cc1ccccc1)C(=O)N1CCSCC1`, the “RELATIVE POTENCY (inhibition of VLA-4 binding CS-1)” value is listed as 493.
Still for that read-out and setting: as for `CC(C)C[C@H](NC(=O)Cc1ccccc1)C(=O)N[C@@H](CC(=O)O)C(=O)N[C@H]1Cc2ccccc2[C@H]2CCCCN2C1=O`, the figure is 50.
The same measure, in the same setting: as for `CC(C)C[C@H](NC(=O)Cc1ccccc1)C(=O)N[C@@H](CC(=O)O)C(=O)N[C@@H]1CCCCNC1=O`, the figure is 17; as for `CC(C)C[C@H](NC(=O)Cc1ccccc1)C(=O)N[C@@H](CC(=O)O)C(=O)NC1Cc2ccccc2N(CCN2CCOCC2)C1=O` (stereo partly drawn), 20.
`CC(C)C[C@H](NC(=O)Cc1ccccc1)C(=O)N[C@@H](CC(=O)O)C(=O)NC1CCCCN(CC(N)=O)C1=O` (stereo partly drawn): the “RELATIVE POTENCY (inhibition of VLA-4 binding CS-1)” value came to 97.
Same read-out and setting: the result for `CC(C)C[C@H](NC(=O)Cc1ccccc1)C(=O)N[C@@H](CC(=O)O)C(=O)NC1Cc2ccccc2N(CC(C)C)C1=O` (stereo partly drawn) reads 6; that for `CC(C)C[C@H](NC(=O)Cc1ccccc1)C(=O)N[C@@H](CC(=O)O)C(=O)NC(Cc1ccccc1)Cc1ccccc1`, 0.
On the same count and under the same terms, the result for `CC(C)C[C@H](NC(=O)Cc1ccccc1)C(=O)N[C@@H](CC(=O)O)C(=O)NCCN1CCOCC1` reads 13.
Consider `CC(C)C[C@H](NC(=O)Cc1ccccc1)C(=O)N[C@@H](CC(=O)O)C(=O)NC1Cc2ccccc2NC1=O` (stereo partly drawn), for which the “RELATIVE POTENCY (inhibition of VLA-4 binding CS-1)” value is 31.
On to `CC(C)C[C@H](NC(=O)Cc1ccccc1)C(=O)N[C@@H](CC(=O)O)C(=O)NC1Cc2ccccc2N(CC(N)=O)C1=O` (stereo partly drawn), for which the “RELATIVE POTENCY (inhibition of VLA-4 binding CS-1)” value is on record as 45.
Regarding `CC(C)C[C@H](NC(=O)Cc1ccccc1)C(=O)N[C@@H](CC(=O)O)C(=O)NC1CCCCNC1=O` (stereo partly drawn), the “RELATIVE POTENCY (inhibition of VLA-4 binding CS-1)” value was 27.
The same measure, in the same setting: the result for `CC(C)C[C@H](NC(=O)Cc1ccccc1)C(=O)N[C@@H](CC(=O)O)C(=O)NN(Cc1ccccc1)C(=O)C1CCCC1` reads 1.
`CC(C)C[C@H](NC(=O)Cc1ccccc1)C(=O)N[C@@H](CC(=O)O)C(=O)NN(Cc1ccccc1)Cc1ccccc1`: the “RELATIVE POTENCY (inhibition of VLA-4 binding CS-1)” value came out at 0.
The same measure, in the same setting: as for `CC(C)C[C@H](NC(=O)Cc1ccccc1)C(=O)N[C@@H](CC(=O)O)C(=O)NC1CCN(C2CCCCC2)C1=O` (stereo partly drawn), the figure is 7; as for `NC(=O)[C@H]1CCCN1C(=O)[C@H](Cc1ccccc1)NC(=O)[C@H](CC(=O)O)NC(=O)[C@H](CC1CCCCC1)NC(=O)c1ccccc1` (Bz-[Cha]DF[dP]-NH2), 17.
The same measure, in the same setting: the result for `CC(C)[C@H](NC(=O)[C@H](CC(=O)O)NC(=O)[C@H](CC1CCCCC1)NC(=O)c1ccccc1)C(=O)N1CCC[C@@H]1C(N)=O` (Bz-[Cha]DV[dP]-NH2) reads 11; that for `CC(C)C[C@H](NC(=O)Cc1ccccc1)C(=O)N[C@@H](CC(=O)O)C(=O)N[C@@H](Cc1ccccc1)C(=O)N1CCC(C(N)=O)CC1` (PhAc-LDF[Inp]-NH2), 933.
`CC(C)C[C@H](NC(=O)Cc1ccccc1)C(=O)N[C@@H](CC(=O)O)C(=O)N[C@@H](Cc1ccccc1)C(=O)N1CCC(C(=O)O)CC1` (PhAc-LDF[Inp]-OH): the “RELATIVE POTENCY (inhibition of VLA-4 binding CS-1)” value was 828.
As for `CC(C)C[C@H](NC(=O)Cc1ccccc1)C(=O)N[C@@H](CC(=O)O)C(=O)N[C@@H](Cc1ccc([N+](=O)[O-])cc1)C(=O)N1CCC[C@@H]1C(N)=O` (PhAc-LD[Phe(4-NO2)][dP]-NH2), the “RELATIVE POTENCY (inhibition of VLA-4 binding CS-1)” value came out at 40.
Consider `CC(C)C[C@H](NC(=O)Cc1ccccc1)C(=O)N[C@@H](CC(=O)O)C(=O)N[C@H](C(=O)N1CCC[C@@H]1C(N)=O)c1ccccc1` (PhAc-LD[Phg][dP]-NH2), for which the “RELATIVE POTENCY (inhibition of VLA-4 binding CS-1)” value is reported as 61.
In the case of `CC(C)C[C@H](NC(=O)Cc1ccccc1)C(=O)N[C@@H](CC(=O)O)C(=O)N[C@@H](CCc1ccccc1)C(=O)N1CCC[C@@H]1C(N)=O` (PhAc-LD[hPhe][dP]-NH2), the “RELATIVE POTENCY (inhibition of VLA-4 binding CS-1)” value turned out to be 94.
The same measure, in the same setting: as for `NC(=O)[C@H]1CCCN1C(=O)[C@H](Cc1ccccc1)NC(=O)[C@H](CC(=O)O)NC(=O)[C@H](CC1CCCCC1)NC(=O)Cc1ccccc1` (PhAc-[Cha]DF[dP]-NH2), the figure is 217.
